{"source": "patent US20040177664A1", "about": "“Production of a high quality organic-based fertilizer” (priority 2003, published 2004)", "key": {"[1]": {"assay": "Odor reduction of municipal sludge, headspace GC-MS and odor", "set-up": "reducing odor / Relative reduction of peak area: concentration or dose not given beside the values", "details": "for reducing odor: oxidizing agents, general statement", "protocol": "Effectiveness of the treatments was evaluated through the GC-MS analysis of the treated and untreated sludge. Sludge (5.0 g) was placed into a 44 ml vial. After heating to 60.0° C. for 5.0 minutes a probe of gas was taken from the vial (0.5 ml) and injected into the GC-MS.\nHewlett-Packard (HP) GC 5890 coupled with an HP 5971 mass-spectrometer. The system incorporates an electron beam as an ion source. Ions are filtered through a glass with silver-coated quadruples.\nA DB5MS capillary chromatographic column is used and the MS is tuned with PFTBA in a Scan Mode (tune file: BFB.U).\nFor further characterization the peak area of the 94-ion was selected. The calibration was performed using dimethyldisulfide. A calibration curve is presented in the attached data.\nIn the first series, 6.00 g (±0.05) of the sludge with the addition of 10.0 ml of distilled water was used. For the treatment, we used potential oxidizers such as KNO3 and H2SO4 in different combinations.\nIn the second series we used 5.00 g (±0.01) of the sludge with no dilution. For the treatment we used additions of hydrogen peroxide (30%) −0.5 ml, sulfuric acid (98%), −0.5 ml, a combination of hydrogen peroxide and 0.5 ml and sulfuric acid 0. ml, ammonia (54%) −0.5ml, calcium hypochlorite −0.5 g.\nThe effectiveness of the additions is evaluated through decreasing the area of 94-ion signal with retention time around 1.94 minutes. We also investigated the influence of time.\nThe samples of the sludge (approximately 5.0 g) were placed into the vials and treated with additions of CaOCl2 at a temperature of 60.0° C.\nThe reproducibility of the treatment with calcium hypochlorite Ca(OCl)2 (CHC) on sludge was investigated. In all experiments, 5.0 g of sludge in a special vial was treated with an addition of percent of weight of odor reducer (0.05 g). After heating to 60.0° C. for 5.0 minutes, a sample of vapor over the sludge was taken and injected into the GC/MS. Total Ion Chromatograph signal with retention time […] were used for evaluation of the treatment corresponding to dimethylsulfide)."}, "[2]": {"assay": "Influence of additives on sludge pH", "type": "physicochemical", "details": "for sludge pH: 0.5 g of each additive on about 5 g sludge", "protocol": "The influence of different additives on the sludge pH was also evaluated.\nInfluence of Additives on Sludge PH\nTreatments with urea, CaSO4, CaO"}}, "note": "Where “and” joins values, the source holds several entries; their conditions need not be identical. Equal values may be shown once."}
{"smiles": "[K+].[O-]Cl", "note": "[potassium hypochlorite]", "values": [{"measurement": "reducing odor", "setting": "[1]", "value": 98, "unit": "%"}]}
{"smiles": "O=S(=O)([O-])[O-].[Ca+2]", "note": "[CaSO4, Calcium sulfate]", "values": [{"measurement": "effect on sludge pH", "setting": "[2]", "value": "does not change the sludge pH"}, {"measurement": "sludge pH", "setting": "[2]", "value": "6.3 and 6.25"}]}
{"smiles": "NC(N)=O", "note": "[Urea]", "values": [{"measurement": "sludge pH", "setting": "[2]", "value": "8.32 and 8.45"}]}
{"smiles": "[O]=[Ca]", "note": "[CaO, calcium oxide]", "values": [{"measurement": "sludge pH", "setting": "[2]", "value": "11.5 and 11.65"}, {"measurement": "sludge pH", "setting": "[2]; listed as calcium oxide", "value": 11.8}]}
{"smiles": "[Ca+2].[O-]Cl.[O-]Cl", "note": "[CaOCl2, calcium hypochlorite]", "values": [{"measurement": "Relative reduction of peak area", "setting": "[1]; against untreated sludge 376025", "value": "97.98% and 96.16% and 98.54% and 96.59% and 98.86% and 99.03% and 99.17% and 99.47%"}, {"measurement": "Average Relative Reduction of the peak area", "setting": "[1]; eight replicates, confidence interval 95%", "value": "98.23% and 98.23±0.85%"}, {"measurement": "reducing odor", "setting": "[1]", "value": 98, "unit": "%"}, {"measurement": "effect on sludge pH", "setting": "[2]", "value": "does not affect the sludge pH"}]}
